Test results: PubChem BioAssay (NCI)
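Assay format: 96-well plates, 48-hour exposure. GI50 is the concentration that inhibits growth by half. TGI: total growth inhibition.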

Tests used:
Assay in all cases: DTP human tumour cell line panel, 48 h
[1] = system: KM12 colon
[2] = system: NCI-H460 lung
[3] = system: NCI-H522 lung
[4] = system: OVCAR-4 ovarian
[5] = system: OVCAR-5 ovarian
[6] = system: RXF 393 renal
[7] = system: SF-268 CNS
[8] = system: MDA-MB-435
[9] = system: NCI/ADR-RES ovarian
[10] = system: SW-620 colon

SMILES | TGI [1] [µM] | TGI [2] [µM] | TGI [3] [µM] | TGI [4] [µM] | TGI [5] [µM] | TGI [6] [µM] | TGI [7] [µM] | TGI [8] [µM] | TGI [9] [µM] | TGI [10] [µM] | GI50 [1] [µM] | GI50 [8] [µM] | GI50 [2] [µM] | GI50 [3] [µM] | GI50 [9] [µM] | GI50 [4] [µM] | GI50 [5] [µM] | GI50 [7] [µM] | GI50 [10] [µM] | GI50 [6] [µM]
CC(=N)N(C)O | > 100 | > 100 | > 100 | > 100 | > 100 | > 100 | > 100 | – | – | – | – | – | – | – | – | – | – | – | – | –
C=C1NC(=O)C(CC(C(=O)C(=O)Nc2c(C)cccc2C(C)(C)C)C(=O)c2ccc3ccccc3c2)C(=O)N1 (stereo not given) | > 100 | > 100 | – | > 100 | > 100 | > 100 | > 100 | > 100 | > 100 | > 100 | – | – | – | – | – | – | – | – | – | –
COc1ccc(NC(=O)CCc2cc(C(C)(C)C)n[nH]2)cc1 | > 100 | > 100 | > 100 | – | > 100 | > 100 | > 100 | – | – | > 100 | – | – | – | – | – | – | – | – | – | –
Cc1cn2c(/C=C3/C(=O)Nc4ccc(F)cc43)c(C)nc2s1 | > 50 | > 50 | 18.7 | > 50 | > 50 | – | > 50 | 2.97 | 7.26 | > 50 | 2.34 | 1.26 | 2.4 | 3.22 | 1.7 | 12.6 | 14.6 | 12.6 | 3.18 | –
C/C(CCn1[nH]c(=O)ccc1=O)=N\Nc1ccc([N+](=O)[O-])cc1[N+](=O)[O-] | > 100 | > 100 | – | > 100 | > 100 | > 100 | > 100 | – | – | > 100 | – | – | – | – | – | – | – | – | – | –
C#CCN(N=O)C(=O)NCCCC(NC(C)=O)C(=O)NCc1ccccc1 (stereo not given) | > 100 | > 100 | > 100 | > 100 | > 100 | > 100 | > 100 | – | – | > 100 | – | – | – | – | – | – | – | – | – | –
CCCCCCCCCCCCCC(=O)OCC1OC(n2cc(F)c(=O)[nH]c2=O)C(N)C(OC(=O)CCCCCCCCCCCCC)C1O (stereo not given) | > 100 | > 100 | > 100 | > 100 | – | > 100 | > 100 | – | – | > 100 | – | – | – | – | – | – | – | – | – | –
COC(=O)C(C(=O)C(=O)Nc1ccc(OC)cc1[N+](=O)[O-])c1nc2cc(C)c(C)cc2[nH]c1=O (stereo not given) | – | > 100 | > 100 | > 100 | – | > 100 | > 100 | – | – | > 100 | – | – | – | – | – | – | – | – | – | –
CCOC(=O)NC(=O)c1cn(CCN2CCNCC2)c(=O)[nH]c1=O | > 100 | > 100 | > 100 | > 100 | > 100 | > 100 | > 100 | – | – | > 100 | – | – | – | – | – | – | – | – | – | –
NNC(=O)N/N=C1\C(=O)N(c2nccs2)C(=O)C(=O)C1c1nc2ccccc2s1 (stereo not given) | > 100 | > 100 | – | > 100 | > 100 | > 100 | > 100 | – | – | > 100 | – | – | – | – | – | – | – | – | – | –
COc1cc(CC(C(=O)O)C(=O)O)c(OC)cc1CC(C(=O)O)C(=O)O | > 100 | > 100 | > 100 | > 100 | > 100 | > 100 | > 100 | – | – | > 100 | – | – | – | – | – | – | – | – | – | –
O=C(Nc1ccc2c(c1)OCO2)C(=O)c1c[nH]c2cc(F)ccc12 | 13.7 | > 100 | – | > 100 | > 100 | 11 | 22.1 | > 100 | 22.9 | > 100 | 0.389 | 0.854 | 3.26 | – | 1.47 | 1.9 | 17.9 | 4.52 | 2.07 | 3.65
Nc1ccc2c(c1)Oc1c(F)c(F)cc3c(=O)c(C(=O)O)cn-2c13 | > 100 | – | > 100 | > 100 | > 100 | > 100 | – | – | – | > 100 | – | – | – | – | – | – | – | – | – | –
O=C(O)CC1CC=C[C@H]2c3cc4c(cc3C(=O)NC12)OCO4 (stereo not given in full) | > 75 | > 75 | > 75 | – | – | > 75 | > 75 | – | – | > 75 | – | – | – | – | – | – | – | – | – | –
Cc1cc(C)nc(NS(=O)(=O)c2ccc(NC(=O)c3ccc(Cl)c4c(Nc5ccc(S(=O)(=O)N=C(N)N)cc5)c5ccccc5nc34)cc2)n1 | > 100 | – | 36.1 | > 100 | > 100 | – | > 100 | – | – | 76 | – | – | – | – | – | – | – | – | – | –
COc1ccc(/C=c2/sc3n(c2=O)NC(c2ccc(Cl)cc2)NN=3)cc1 (stereo not given) | > 100 | > 100 | > 100 | > 100 | > 100 | > 100 | > 100 | – | – | > 100 | – | – | – | – | – | – | – | – | – | –
CC(=O)O/N=C(Cl)/C(Cl)=N/OC(C)=O | > 100 | > 100 | > 100 | > 100 | > 100 | > 100 | > 100 | – | – | > 100 | – | – | – | – | – | – | – | – | – | –
Cc1ccc(/C=C(\C#N)c2ccccc2)cc1 | > 100 | > 100 | > 100 | > 100 | > 100 | > 100 | > 100 | – | – | > 100 | – | – | – | – | – | – | – | – | – | –
Cc1nc(Nc2ccccc2)sc1C(=O)CC(=O)C(=O)NC12CC3CC(CC(C3)C1)C2 | > 100 | > 100 | > 100 | > 100 | > 100 | > 100 | > 100 | – | – | > 100 | – | – | – | – | – | – | – | – | – | –
CN(C)CCNC(=O)c1cccc2ncc(-c3ccccc3)nc12 | 29.4 | 19.6 | 21.1 | 26.7 | 30.5 | 18 | 29.4 | – | – | 63.5 | – | – | – | – | – | – | – | – | – | –
CN(C)CCC1(C2=CCCC2)CC/C(=C\c2ccccc2Cl)C1=O (stereo not given) | 27.3 | 31 | – | 25.8 | 29.1 | 17.5 | 28.7 | – | – | 25.2 | – | – | – | – | – | – | – | – | – | –
OC1CCC[C@@H]1Sc1ccccc1 (stereo not given in full) | > 100 | > 100 | – | > 100 | – | > 100 | > 100 | – | – | > 100 | – | – | – | – | – | – | – | – | – | –
O=C(NN1C(=O)CSC12CCCC2)C(O)c1ccccc1 (stereo not given) | > 100 | > 100 | > 100 | > 100 | > 100 | > 100 | > 100 | > 100 | – | > 100 | > 100 | > 100 | > 100 | > 100 | – | > 100 | > 100 | > 100 | > 100 | > 100
COc1ccc(C[C@H](N)C(=O)N2C[C@@H](CO)C[C@@H](n3cnc4c(N(C)C)ncnc43)C2)cc1 | > 100 | > 100 | > 100 | – | > 100 | – | > 100 | – | – | > 100 | – | – | – | – | – | – | – | – | – | –
